Counter-ions that a name gives are not always drawn.
Legend:
MAO-A = target: T1, MAO-A (Homo sapiens, UniProt P21397); test: Measurement of MAO-A inhibitory activity (MAO-Glo Assay); format: biochemical
T1 construct: purchased Sigma-Aldrich Co. LLC
T1 sequence (P21397 1-527): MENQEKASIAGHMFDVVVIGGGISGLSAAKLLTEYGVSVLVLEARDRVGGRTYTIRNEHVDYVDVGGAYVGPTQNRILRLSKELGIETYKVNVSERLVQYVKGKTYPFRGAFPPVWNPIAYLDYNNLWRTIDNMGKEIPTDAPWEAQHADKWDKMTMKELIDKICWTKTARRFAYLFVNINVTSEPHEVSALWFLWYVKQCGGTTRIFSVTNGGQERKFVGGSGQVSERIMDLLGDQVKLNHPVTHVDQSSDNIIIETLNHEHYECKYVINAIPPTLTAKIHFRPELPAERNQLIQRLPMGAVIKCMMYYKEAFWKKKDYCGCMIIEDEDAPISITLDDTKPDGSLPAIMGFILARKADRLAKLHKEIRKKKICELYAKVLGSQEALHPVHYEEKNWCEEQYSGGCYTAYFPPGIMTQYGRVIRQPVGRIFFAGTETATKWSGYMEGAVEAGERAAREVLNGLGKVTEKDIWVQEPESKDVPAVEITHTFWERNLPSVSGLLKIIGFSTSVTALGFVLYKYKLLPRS
In short: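 MAO-A (400 ng) was pre-incubated with compound 10 min at room temperature in 100 mM HEPES pH 7.5, 5% glycerol, then MAO substrate (160 μM stock) added for 60 min. Luciferin detection reagent, 20 min, luminescence; % inhibition against no-compound control minus no-enzyme blank.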

MAO-B = target: T2, MAO-B (Homo sapiens, UniProt P27338); test: Measurement of MAO-B inhibitory activity (MAO-Glo Assay); format: biochemical
T2 construct: purchased Sigma-Aldrich Co. LLC
T2 sequence (P27338 1-520): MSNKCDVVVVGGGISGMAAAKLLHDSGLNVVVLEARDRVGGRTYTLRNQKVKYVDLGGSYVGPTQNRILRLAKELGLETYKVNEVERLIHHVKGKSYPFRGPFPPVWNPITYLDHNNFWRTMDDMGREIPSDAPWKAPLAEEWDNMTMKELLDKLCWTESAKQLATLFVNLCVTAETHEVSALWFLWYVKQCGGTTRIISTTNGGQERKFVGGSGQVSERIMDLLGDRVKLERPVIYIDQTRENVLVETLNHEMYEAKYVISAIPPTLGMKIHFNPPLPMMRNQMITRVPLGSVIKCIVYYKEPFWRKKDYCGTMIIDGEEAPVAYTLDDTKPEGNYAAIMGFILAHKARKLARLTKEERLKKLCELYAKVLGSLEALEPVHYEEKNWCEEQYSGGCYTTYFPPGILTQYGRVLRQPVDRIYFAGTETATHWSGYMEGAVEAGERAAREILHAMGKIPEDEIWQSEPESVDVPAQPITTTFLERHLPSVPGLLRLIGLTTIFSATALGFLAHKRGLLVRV
In short: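 Percent inhibition was calculated from luciferin-based luminescence, corrected with a blank lacking enzyme and a control lacking compound. The reaction ran 60 min at room temperature after adding MAO substrate (16 µM as added). This followed a 10 min compound–enzyme preincubation in HEPES pH 7.5 buffer.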

[1] = tested on: HEL92.1.7 acute myeloid leukemia cells; test: Tumor growth suppressive effect test using HEL92.1.7 acute myeloid leukemia cell; format: in vivo, SCID mice; conditions: change rate in tumor volume, vehicle-treated group = 100%, 30 mg/kg orally once per day
Protocol: Tumor Growth Suppressive Effect Test Using HEL92.1.7 Acute Myeloid Leukemia Cell
6-Week-old SCID mice were subcutaneously transplanted with 5×10^6 cells/100 μl of HEL92.1.7 acute myeloid leukemia cells, and the mice were grouped according to the body weight and tumor volume after 15 to 17 days. Vehicle (0.5% methylcellulose) or compound A, compound B or compound C was administered orally to mice (5 mice per group). The administration was once per day and performed continuously during the dosing period. Setting the change in tumor volume of the vehicle-treated group as 100%, the change rate in tumor volume of the compound-treated group (T/C %) was calculated. The tumor volume was determined by measuring the long diameter m and short diameter of the tumor with a vernier caliper, and calculating by the following calculation formula: (long diameter)×(short diameter)×(short diameter)/2.

human LSD1(171-852) = target: T3, human LSD1(171-852) (Homo sapiens, UniProt O60341); test: Measurement of LSD1 inhibitory activity (time-resolved fluorescence, biotin-histone H3 mono methylated K4 peptide); format: biochemical; conditions: read-out: LSD1 IC50 value
T3 construct: to give hLSD1(171-852) purified product; made in house; host or cells: Escherichia coli C43(DE3) pLysS

| Structure (SMILES) | IC50 (MAO-A) [µM] | IC50 (MAO-B) [µM] | T/C (%) ([1]; dosing period 14 days) | IC50 (human LSD1(171-852)) [µM] | T/C (%) ([1]; dosing period 7 days) |
| --- | --- | --- | --- | --- | --- |
| O=C(Nc1ccc([C@@H]2C[C@H]2NCC2CC2)cc1)c1ccc(-c2ccccc2)cc1 (single isomer, unassigned) [Example 59, N-(4-{trans-2-[(cyclopropylmethyl)amino]cyclopropyl}phenyl)biphenyl-4-carboxamide hydrochloride] | 7.1 | > 10 | 12.54 |  |  |
| CN1CCC(N[C@@H]2C[C@H]2c2ccc(NC(=O)c3cccc(C(F)(F)F)c3)cc2)CC1 (relative stereo) [Example 76, N-(4-{trans-2-[(1-methylpiperidin-4-yl)amino]cyclopropyl}phenyl)-3-(trifluoromethyl)benzamide dihydrochloride] | > 10 | > 10 |  | < 0.1 | −8.08 |
| O=C(Nc1ccc([C@@H]2C[C@H]2NCC2CC2)cc1)c1cn[nH]c1 (relative stereo) [Example 79, N-(4-{trans-2-[(cyclopropylmethyl)amino]cyclopropyl}phenyl)-1H-pyrazole-4-carboxamide hydrochloride] | > 10 | > 10 | 46.42 | < 0.1 |  |
| CC1=NN(c2ccc(C(=O)Nc3ccc([C@@H]4C[C@H]4NCC4CC4)cc3)cc2)C(=O)C1 (relative stereo) [Example 86, N-(4-{trans-2-[(cyclopropylmethyl)amino]cyclopropyl}-phenyl)-4-(3-methyl-5-oxo-4,5-dihydro-1H-pyrazol-1-yl)benzamide] | > 10 | > 10 |  | 1 |  |
| O=C(Nc1ccc([C@@H]2C[C@H]2NCC2CC2)cc1)c1cc(-c2ccccc2)on1 (relative stereo) [Example 93, N-(4-{trans-2-[(cyclopropylmethyl)-amino]cyclopropyl}-phenyl)-5-phenyl-1,2-oxazole-3-carboxamide] | > 10 | > 10 |  | < 0.1 |  |
| Cc1c(C(=O)Nc2ccc([C@@H]3C[C@H]3NCC3CC3)cc2)cnn1-c1ccccc1 (relative stereo) [Example 121, N-(4-{trans-2-[(cyclopropylmethyl)amino]cyclopropyl}-phenyl)-5-methyl-1-phenyl-1H-pyrazole-4-carboxamide] | > 10 | > 10 |  | < 0.1 |  |
| O=C(Nc1ccc([C@@H]2C[C@H]2NCC2CC2)cc1)c1ccc(-c2nnn[nH]2)cc1 (relative stereo) [Example 102, N-(4-{trans-2-[(cyclopropylmethyl)-amino]cyclopropyl}-phenyl)-4-(1H-tetrazol-5-yl)benzamide] | > 10 | > 10 |  | 0.2 |  |
| O=C(Nc1ccc([C@@H]2C[C@H]2NCC2CC2)cc1)c1ccc(-c2cnco2)cc1 (relative stereo) [Example 95, N-(4-{trans-2-[(cyclopropylmethyl)-amino]cyclopropyl}-phenyl)-4-(1,3-oxazol-5-yl)benzamide] | > 10 | > 10 |  | < 0.1 |  |
| O=C(Nc1ccc([C@@H]2C[C@H]2NCC2CC2)cc1)c1cccc(OC(F)(F)F)c1 (relative stereo) [Example 109, N-(4-{trans-2-[(cyclopropylmethyl)amino]cyclopropyl}phenyl)-3-(trifluoromethoxy)benzamide hydrochloride] | > 10 | > 10 |  | < 0.1 |  |
